Source: PMC7998669, “7-(2-Anilinopyrimidin-4-yl)-1-benzazepin-2-ones Designed by a “Cut and Glue” Strategy Are Dual Aurora A/VEGF-R Kinase Inhibitors” (Molecules, 2021)

Key:
Assay in all cases: NCI cancer cell line screen (sulforhodamin B)
Format in all cases: cell-based
[1] = system: HCC-2998; conditions: Homo sapiens; HCC-2998, Colon; 48 h; read-out: log10 GI50 (converted)
Procedure: (§1) The new dual Aurora A/VEGF-R inhibitors 2e and 2n were selected by the National Cancer Institute for screening in its broad cancer cell line panel. The NCI in vitro assay is performed by incubation of cells with test compounds for 48 h and subsequent cell fixation with trichloroacetic acid. The pink dye sulforhodamin B is added, which binds to the proteins of the fixed cells. After washing and solubilizing the bound stain, the optical density is measured spectrophotometrically to determine the relative proliferation of treated and untreated cells.
(§2) Simultaneous inhibition of the Aurora A kinase and the VEGF-R2/3 receptor kinases may represent an interesting dual activity for the treatment of cancer. The National Cancer Institute selected the compounds 2e and 2n as representatives with particularly high inhibitory activity on the above kinases for testing in the IVCLS (in vitro cell line screening). In this screening, compounds are tested for antiproliferative activity on about 60 in vitro cultivated tumor cell lines. Based on this very broad screening on cell lines from nine tumor entities the general antiproliferative potency of compounds is determined. In addition, the bioinformatic tool COMPARE allowed one to draw conclusions on the molecular target of the compounds from the activity patterns on the different cell lines. Similar molecular mechanisms of action of two compounds are assumed if a Pearson correlation coefficient (PCC) of > 0.6 is calculated by COMPARE [52, 53]. […] The selectivity profile of the two compounds is not very pronounced given the overall very similar proliferation inhibition values across all cell lines. A COMPARE analysis determined a PCC = 0.61 for the patterns of test compounds 2e and 2n, which is consistent with an analogous mechanism of action. However, whether this mechanism is actually based on the inhibition of the inhibited Aurora kinases and VEGF receptor kinases cannot be deduced from these profiles.

[2] = system: BT-549; conditions: Homo sapiens; BT-549, Breast; 48 h; read-out: log10 GI50 (converted)
Procedure: as §1, §2

[3] = system: HOP-92; conditions: Homo sapiens; HOP-92, NSCL; 48 h; read-out: log10 GI50 (converted)
Procedure: as §1, §2

[4] = system: HCT-116; conditions: Homo sapiens; HCT-116, Colon; 48 h; read-out: log10 GI50 (converted)
Procedure: as §1, §2

[5] = system: NCI-H460; conditions: Homo sapiens; NCI-H460, NSCL; 48 h; read-out: log10 GI50 (converted)
Procedure: as §1, §2

[6] = system: HOP-62; conditions: Homo sapiens; HOP-62, NSCL; 48 h; read-out: log10 GI50 (converted)
Procedure: as §1, §2

[7] = system: MALME-3M; conditions: Homo sapiens, Melanoma, 48 h, read-out: log10 GI50 (converted)
Procedure: as §1, §2

[8] = system: NCI-H23; conditions: Homo sapiens; NCI-H23, NSCL; 48 h; read-out: log10 GI50 (converted)
Procedure: as §1, §2

[9] = system: SW-620; conditions: Homo sapiens; SW-620, Colon; 48 h; read-out: log10 GI50 (converted)
Procedure: as §1, §2

[10] = system: OVCAR-3; conditions: Homo sapiens; OVCAR-3, Ovarian; 48 h; read-out: log10 GI50 (converted)
Procedure: as §1, §2

[11] = system: OVCAR-4; conditions: Homo sapiens; OVCAR-4, Ovarian; 48 h; read-out: log10 GI50 (converted)
Procedure: as §1, §2

[12] = system: HL-60(TB); conditions: Homo sapiens, Leukemia, 48 h, read-out: log10 GI50 (converted)
Procedure: as §1, §2

[13] = system: SNB-75; conditions: Homo sapiens; SNB-75, CNS; 48 h; read-out: log10 GI50 (converted)
Procedure: as §1, §2

[14] = system: HS 578T; conditions: Homo sapiens, Breast, 48 h, read-out: log10 GI50 (converted)
Procedure: as §1, §2

[15] = system: MDA-MB-231/ATCC; conditions: Homo sapiens, Breast, 48 h, read-out: log10 GI50 (converted)
Procedure: as §1, §2

[16] = system: EKVX; conditions: Homo sapiens, NSCL, 48 h, read-out: log10 GI50 (converted)
Procedure: as §1, §2

[17] = system: SF-268; conditions: Homo sapiens; SF-268, CNS; 48 h; read-out: log10 GI50 (converted)
Procedure: as §1, §2

[18] = system: A549/ATCC; conditions: Homo sapiens, NSCL, 48 h, read-out: log10 GI50 (converted)
Procedure: as §1, §2

[19] = system: SK-OV-3; conditions: Homo sapiens; SK-OV-3, Ovarian; 48 h; read-out: log10 GI50 (converted)
Procedure: as §1, §2

[20] = system: K-562; conditions: Homo sapiens, K562; K-562, Leukemia; 48 h; read-out: log10 GI50 (converted)
Procedure: as §1, §2

[21] = system: UACC-257; conditions: Homo sapiens; UACC-257, Melanoma; 48 h; read-out: log10 GI50 (converted)
Procedure: as §1, §2

[22] = system: SK-MEL-2; conditions: Homo sapiens; SK-MEL-2, Melanoma; 48 h; read-out: log10 GI50 (converted)
Procedure: as §1, §2

[23] = system: SK-MEL-28; conditions: Homo sapiens; SK-MEL-28, Melanoma; 48 h; read-out: log10 GI50 (converted)
Procedure: as §1, §2

[24] = system: DU-145; conditions: Homo sapiens; DU-145, Prostate; 48 h; read-out: log10 GI50 (converted)
Procedure: as §1, §2

[25] = system: M14; conditions: Homo sapiens; M14, Melanoma; 48 h; read-out: log10 GI50 (converted)
Procedure: as §1, §2

[26] = system: LOX IMVI; conditions: Homo sapiens, Melanoma, 48 h, read-out: log10 GI50 (converted)
Procedure: as §1, §2

[27] = system: HCT-15; conditions: Homo sapiens; HCT-15, Colon; 48 h; read-out: log10 GI50 (converted)
Procedure: as §1, §2

[28] = system: SR; conditions: Homo sapiens, Leukemia, 48 h, read-out: log10 GI50 (converted)
Procedure: as §1, §2

[29] = system: 786-0; conditions: Homo sapiens; 786-0, Renal; 48 h; read-out: log10 GI50 (converted)
Procedure: as §1, §2

| SMILES | GI50 [1] [µM] | GI50 [2] [µM] | GI50 [3] [µM] | GI50 [4] [µM] | GI50 [5] [µM] | GI50 [6] [µM] | GI50 [7] [µM] | GI50 [8] [µM] | GI50 [9] [µM] | GI50 [10] [µM] | GI50 [11] [µM] | GI50 [12] [µM] | GI50 [13] [µM] | GI50 [14] [µM] | GI50 [15] [µM] | GI50 [16] [µM] | GI50 [17] [µM] | GI50 [18] [µM] | GI50 [19] [µM] | GI50 [20] [µM] | further results |
| --- | --- | --- | --- | --- | --- | --- | --- | --- | --- | --- | --- | --- | --- | --- | --- | --- | --- | --- | --- | --- | --- |
| O=C1CCCc2cc(-c3ccnc(Nc4ccc(O)cc4)n3)ccc2N1 [Compound 2e, 7-[2-(4-Hydroxyanilino)pyrimidin-4-yl]-1,3,4,5-tetrahydro-2H-1-benzazepin-2-one] | 8.71 | 5.13 | 6.61 | 3.63 | 3.16 | 11 | 2.19 | > 100 | 4.79 | 5.89 | 5.62 | 1.38 | 3.39 | 4.9 | > 100 | 34.7 | 4.37 | 4.47 | 3.02 | 3.72 | GI50 [21]: 4.17 µM; GI50 [22]: 2.09 µM; GI50 [23]: 5.75 µM; GI50 [24]: 3.39 µM; GI50 [25]: 4.07 µM; GI50 [26]: 3.39 µM; GI50 [27]: 3.24 µM; GI50 [28]: 1.32 µM; GI50 [29]: 4.37 µM |
| COc1ccc(Nc2nccc(-c3ccc4c(c3)CCCC(=O)N4)n2)cc1O [Compound 2n, 7-[2-(3-Hydroxy-4-methoxyanilino)pyrimidin-4-yl]-1,3,4,5-tetrahydro-2H-1-benzazepin-2-one] | 22.9 | 5.62 | 0.214 | 3.8 | 4.68 | 8.13 | > 100 | 11.7 | 4.47 | 10 | 7.59 | 3.16 | 2.19 | 2.14 | > 100 | 43.7 | 7.41 | 7.94 | 5.25 | 4.27 | GI50 [21]: 14.8 µM; GI50 [22]: 9.12 µM; GI50 [23]: 9.12 µM; GI50 [24]: 5.01 µM; GI50 [25]: 4.37 µM; GI50 [26]: 5.5 µM; GI50 [27]: 4.57 µM; GI50 [28]: 3.16 µM; GI50 [29]: 4.57 µM |
